The subject of data set [1] is C6 rat glioma. As to the kind of experiment: differential culture cytotoxicity assay, C6 glioma. The following applies: comparison of IC50 values. As to the method: Normal cultured rat astrocytes and C6 rat glioma were used as a differential screen for a variety of 1,2,3,4-tetrahydroisoquinoline derivatives. […] To explore structure activity relationships (SAR) a number of 1,2,3,4-tetrahydroisoquinolines 2, 4, 5, 7, and 8 were synthesized and tested for antiglioma activity.
The astrocytes primary culture was derived from neonatal (4-8 days postpartum) rat pups as described by Geisert et al. The primary cultures were prepared as per McCarthy et al. Briefly, the rat pups were anesthetized on ice, decapitated, and the brains were removed. The cerebral cortex was removed, stripped of the meninges, and cut into small pieces of approximately 1 mm^2. The tissue was placed in 0.1% trypsin for 15 min and gently pipetted to produce a single cell suspension. The cell suspension was then rinsed in media and transferred to culture flasks. […]
The experimental treatment was the incubation of the cells with test compound for 96 h at 37° C., 5% CO2. The cells were fixed with 4% formaldehyde, stained with 0.1% cresylecth violet stain, and quantitated as per Wagner et a. […]
The cytotoxic character of each compound was reported as the percent survival, calculated as the average A560 for treated cells divided by A560 of untreated (negative control) cells, and expressed as a percentage. […]

Data set [2] deals with C6 glioma. As to the kind of experiment: in vivo rat model: C6 glioma cells injected into brain, treatment by osmotic mini pump. The following applies: rat hippocampus, 7 days treatment. From the text:
Approximately 5×10^4 C6 glioma cells were transplanted into a rat brain via a cannula followed by treatment for seven days. Tumor cells are depicted by staining for beta galactosidase.
FIG. 2 is a graph depicting the maximum extent of tumor in a single section.
A rat model system was developed to examine the in vivo efficacy of the compounds of the present invention.
The first step was to produce a cell line with a marker gene. A rat C6 glioma cell line was selected and stably transfected with a β-galactosidase construct. These cells were cultured and prepared for injection into the brain of adult Sprague-Dawley rats to simulate in vivo tumor development.
The animals were anesthetized and a cannula was placed into the brain. Approximately 5×10^4 glioma cells were injected through the cannula. […] The mini osmotic pump delivered 1 μl/hr for 7 days. With the tubing used to connect the pump, there was approximately a 10 hour delay for the treatment to reach the brain.
The section with the largest extent of tumor visible in all of the cases was identified and the cross-sectional area of the tumor was measured.

In data set [3] the test system is MCF7, A549, HeLa, LnCap cancer cell lines. As to the kind of experiment: anti-proliferative activity against cancer cell lines, 96 hr. The data set is classed as cell-based. The following applies: every type of cancer tested: brain, breast, lung epithelial, cervical, prostate cancer cell lines. How it is done: Cell proliferation was measured and EC50 values were estimated.

The nature of data set [4]: animal toxicity test, delivery into striatum by mini-osmotic pump. The class given is in vivo, rat. The settings on record: 5 μM into striatum, five days, Nissl stain; hydrochloride. How it is done:
The drug was delivered directly into the striatum of rats at a concentration of 5 μM, two times greater than the estimated EC50 value. […] The rats were sacrificed, brain sections were investigated for any major tissue change in the brain. Brains were fixed in 4% paraformaldehyde, cut in sections and stained by the Nissl method.
The drug was administered into the striatum of rats at 5 μM, which is approximately two times greater than the estimated EC5) value. […] The rats were sacrificed and brain sections were investigated for any major tissue change in the brain. Brains were fixed in 4% paraformaldehyde, cut in sections, and stained by the Nissl method.

Data set [5] has as its system primary cultured cortical astrocytes. As to the kind of experiment: effect on primary cultured cortical astrocytes (Example 5). The settings on record: at EC50 concentrations for the C6 gliomas.

These results are taken from US20080033007A1, “Substituted Tetrahydroisoquinoline Compounds for Cancer Therapy” (priority 2002, published 2008).

Molecules are shown by their SMILES. Entries after “also recorded” stand apart in the source; their conditions may differ.

In the case of `Cl.Oc1cc2c(cc1O)C(Cc1ccc(-c3ccccc3)cc1)NCC2` (racemic) [MMGS-155], the “cytotoxic activity relative to another compound” value is “more potent; also recorded: at least two-fold higher potency” in data set [1] (listed as 1, hydrochloride) and “increased relative potency” in data set [1] (listed as 1-(biphenyl-4-ylmethyl)-1,2,3,4-tetrahydroisoquinoline-6,7-diol, hydrochloride). For the same molecule, the “pathology of normal brain tissue beneath treatment cannula” value in data set [2] is listed as “Limited pathology”. Besides, in data set [3], the “LD50, killing of cancer cells in culture” value is reported as “approximately 3 μM”. Besides, in data set [4], the “brain damage / tissue change” value is “did not show any sign of brain damage; also recorded: brain tissue appears normal”. Also, the destruction to astrocytes entry in data set [5] is recorded as “only minimal destruction to astrocytes”.
